Measurements published in ChEMBL document CHEMBL3407403, “Synthetic modification of hydroxychavicol by Mannich reaction and alkyne-azide cycloaddition derivatives depicting cytotoxic potential” (Eur J Med Chem, 2015).
Activity calls are given as the source filed them. No cut-off for these calls is given here.

Tests used:
SK-N-SH [1] = assay: Growth inhibition of human SK-N-SH cells at 50 uM after 72 hrs by MTT assay; assay type: functional; settings: read-out: GI
[2] = Cell cycle arrest in human HL60 cells assessed as accumulation at G1 phase at 10 uM after 24 hrs by propidium iodide-staining based flow cytometry (reference value: 36%); assay type: functional; settings: HL-60
[3] = Cell cycle arrest in human HL60 cells assessed as accumulation at G2 phase at 15 uM after 24 hrs by propidium iodide-staining based flow cytometry (reference value: […]); assay type: functional; settings: HL-60
HL-60 [4] = assay: Reduction in mitochondrial membrane potential in human HL60 cells at 5 uM after 24 hrs by Rh-123-staining based flow cytometry (reference value: 7%); assay type: functional; set-up: scale not given: the % may be the effect or the level left
[5] = Growth inhibition of human MIAPaCa2 cells at 30 uM after 72 hrs by MTT assay; assay type: functional; settings: MIA PaCa-2, 72 h, read-out: GI
MCF7 [6] = assay: Growth inhibition of human MCF7 cells at 50 uM after 72 hrs by MTT assay; assay type: functional; settings: MCF7, 72 h, read-out: GI
MCF7 [7] = assay: Growth inhibition of human MCF7 cells after 72 hrs by MTT assay; assay type: functional, cell-based; settings: MCF7, 72 h
[8] = Cell cycle arrest in human HL60 cells assessed as apoptotic cells at 20 uM after 24 hrs by propidium iodide-staining based flow cytometry (reference value: 3%); assay type: functional; settings: HL-60
[9] = Cell cycle arrest in human HL60 cells assessed as accumulation at S phase at 15 uM after 24 hrs by propidium iodide-staining based flow cytometry (reference value: 63%); assay type: functional; settings: HL-60
[10] = Growth inhibition of human HL60 cells at 30 uM after 72 hrs by MTT assay; assay type: functional; settings: HL-60, 72 h, read-out: GI
HL-60 [11] = assay: Reduction in mitochondrial membrane potential in human HL60 cells at 20 uM after 24 hrs by Rh-123-staining based flow cytometry (reference value: 7%); assay type: functional; set-up: scale not given: the % may be the effect or the level left
[12] = Growth inhibition of human HL60 cells at 50 uM after 72 hrs by MTT assay; assay type: functional; settings: HL-60, 72 h, read-out: GI
[13] = Cell cycle arrest in human HL60 cells assessed as accumulation at S phase at 20 uM after 24 hrs by propidium iodide-staining based flow cytometry (reference value: […]); assay type: functional; settings: HL-60
HepG2 [14] = assay: Growth inhibition of human HepG2 cells after 72 hrs by MTT assay; assay type: functional, cell-based; settings: HepG2, 72 h
[15] = Growth inhibition of human MIAPaCa2 cells after 72 hrs by MTT assay; assay type: functional, cell-based; settings: MIA PaCa-2, 72 h
HL-60 [16] = assay: Induction of apoptosis in human HL60 cells assessed as apoptotic bodies formation after 24 hrs by Hoechst 33342-staining based fluorescence microscopy; assay type: functional, cell-based
[17] = Cell cycle arrest in human HL60 cells assessed as accumulation at G2 phase at 5 uM after 24 hrs by propidium iodide-staining based flow cytometry (reference value: 1%); assay type: functional; settings: HL-60
[18] = Cell cycle arrest in human HL60 cells assessed as accumulation at G1 phase at 20 uM after 24 hrs by propidium iodide-staining based flow cytometry (reference value: 36%); assay type: functional; settings: HL-60
[19] = Cell cycle arrest in human HL60 cells assessed as accumulation at S phase at 5 uM after 24 hrs by propidium iodide-staining based flow cytometry (reference value: 63%); assay type: functional; settings: HL-60
HL-60 [20] = assay: Induction of apoptosis in human HL60 cells assessed as effect on morphology at 5 to 20 uM after 24 hrs by phase-contrast microscopy; assay type: functional, cell-based
HL-60 [21] = assay: Reduction in mitochondrial membrane potential in human HL60 cells at 10 uM after 24 hrs by Rh-123-staining based flow cytometry (reference value: 7%); assay type: functional; set-up: scale not given: the % may be the effect or the level left
[22] = Cell cycle arrest in human HL60 cells assessed as accumulation at S phase at 10 uM after 24 hrs by propidium iodide-staining based flow cytometry (reference value: 63%); assay type: functional; settings: HL-60
MCF7 [23] = assay: Growth inhibition of human MCF7 cells at 30 uM after 72 hrs by MTT assay; assay type: functional; settings: MCF7, 72 h, read-out: GI
[24] = Growth inhibition of human HL60 cells after 24 hrs by MTT assay; assay type: functional, cell-based; settings: HL-60, 24 h
[25] = Cell cycle arrest in human HL60 cells assessed as accumulation at G2 phase at 10 uM after 24 hrs by propidium iodide-staining based flow cytometry (reference value: 1%); assay type: functional; settings: HL-60
HL-60 [26] = assay: Reduction in mitochondrial membrane potential in human HL60 cells at 15 uM after 24 hrs by Rh-123-staining based flow cytometry (reference value: 7%); assay type: functional; set-up: scale not given: the % may be the effect or the level left
[27] = Cell cycle arrest in human HL60 cells assessed as accumulation at G2 phase at 20 uM after 24 hrs by propidium iodide-staining based flow cytometry (reference value: […]); assay type: functional; settings: HL-60
HepG2 [28] = assay: Growth inhibition of human HepG2 cells at 50 uM after 72 hrs by MTT assay; assay type: functional; settings: HepG2, 72 h, read-out: GI
[29] = Cell cycle arrest in human HL60 cells assessed as accumulation at G1 phase at 5 uM after 24 hrs by propidium iodide-staining based flow cytometry (reference value: 36%); assay type: functional; settings: HL-60
SK-N-SH [30] = assay: Growth inhibition of human SK-N-SH cells at 30 uM after 72 hrs by MTT assay; assay type: functional; settings: read-out: GI
[31] = Growth inhibition of human HL60 cells after 72 hrs by MTT assay; assay type: functional, cell-based; settings: HL-60, 72 h
HepG2 [32] = assay: Growth inhibition of human HepG2 cells at 30 uM after 72 hrs by MTT assay; assay type: functional; settings: HepG2, 72 h, read-out: GI
[33] = Cell cycle arrest in human HL60 cells assessed as apoptotic cells at 15 uM after 24 hrs by propidium iodide-staining based flow cytometry (reference value: 3%); assay type: functional; settings: HL-60
SK-N-SH [34] = assay: Growth inhibition of human SK-N-SH cells after 72 hrs by MTT assay; assay type: functional, cell-based
[35] = Growth inhibition of human MIAPaCa2 cells at 50 uM after 72 hrs by MTT assay; assay type: functional; settings: MIA PaCa-2, 72 h, read-out: GI
[36] = Cell cycle arrest in human HL60 cells assessed as apoptotic cells at 10 uM after 24 hrs by propidium iodide-staining based flow cytometry (reference value: 3%); assay type: functional; settings: HL-60
[37] = Cell cycle arrest in human HL60 cells assessed as apoptotic cells at 5 uM after 24 hrs by propidium iodide-staining based flow cytometry (reference value: 3%); assay type: functional; settings: HL-60
[38] = Cell cycle arrest in human HL60 cells assessed as accumulation at G1 phase at 15 uM after 24 hrs by propidium iodide-staining based flow cytometry (reference value: 36%); assay type: functional; settings: HL-60
HL-60 [39] = assay: Induction of apoptosis in human HL60 cells assessed as apoptotic bodies formation at 5 to 20 uM after 24 hrs by Hoechst 33342-staining based fluorescence microscopy; assay type: functional, cell-based

Row | Structure (SMILES) | inhibition of growth at 50 µM (SK-N-SH [1]) [%] | Activity [2] [%] | Activity [3] [%] | Activity (HL-60 [4]) [%] | inhibition of growth at 30 µM [5] [%] | inhibition of growth at 50 µM (MCF7 [6]) [%] | IC50 (MCF7 [7]) [µM] | Activity [8] [%] | Activity [9] [%] | inhibition of growth at 30 µM [10] [%] | Activity (HL-60 [11]) [%] | inhibition of growth at 50 µM [12] [%] | Activity [13] [%] | IC50 (HepG2 [14]) [µM] | IC50 [15] [µM] | Activity [17] [%] | Activity [18] [%] | Activity [19] [%] | Activity (HL-60 [20]) | Activity (HL-60 [21]) [%] | other results
1 | C=CCc1cc(O)c(O)c(CN2CCNCC2)c1 | 69.9 | 59 | 11 | 38 | 82.8 | 74.2 | 12 | 88 | 39 | 92.5 | 46 | 94.4 | 44 | 20 | 4 | 2 | 52 | 57 | Active | 44 | Activity (HL-60 [16]): Dose-dependent effect; Activity [22]: 37%; inhibition of growth at 30 µM (MCF7 [23]): 69.2%; IC50 [24]: 12 µM; Activity [25]: 4%; Activity (HL-60 [26]): 45%; Activity [27]: 4%; inhibition of growth at 50 µM (HepG2 [28]): 73%; Activity [29]: 41%; inhibition of growth at 30 µM (SK-N-SH [30]): 65.3%; IC50 [31]: 2 µM; inhibition of growth at 30 µM (HepG2 [32]): 64.2%; Activity [33]: 27%; IC50 (SK-N-SH [34]): 14 µM; inhibition of growth at 50 µM [35]: 85.6%; Activity [36]: 11%; Activity [37]: 8%; Activity [38]: 50%
2 | C=CCc1cc(O)c(O)c(CN2CCN(c3ccccc3O)CC2)c1 | 79.5 | 41 | 1 | 38 | 88.7 | 79.7 | 9 | 89 | 78 | 90.3 | 71 | 93.5 | 44 | 16 | 3 | 1 | 51 | 52 | Active | 44 | Activity (HL-60 [16]): Dose-dependent effect; Activity [22]: 52%; inhibition of growth at 30 µM (MCF7 [23]): 77.7%; IC50 [24]: 10 µM; Activity [25]: 7%; Activity (HL-60 [26]): 59%; Activity [27]: 5%; inhibition of growth at 50 µM (HepG2 [28]): 82.8%; Activity [29]: 47%; inhibition of growth at 30 µM (SK-N-SH [30]): 69.2%; IC50 [31]: 1 µM; inhibition of growth at 30 µM (HepG2 [32]): 72.8%; Activity [33]: 52%; IC50 (SK-N-SH [34]): 11 µM; inhibition of growth at 50 µM [35]: 89.9%; Activity [36]: 12%; Activity [37]: 7%; Activity [38]: 21%
3 | C=CCc1ccc(O)c(O)c1 [HYDROXYCHAVICOL] | 71.7 | 37 | 22 | 17 | 41.7 | 44.1 | > 30 | 10 | 61 | 88.8 | 42 | 92.4 | 67 | > 30 | > 30 | 8 | 27 | 57 | Active | 22 | Activity (HL-60 [39]): Active; Activity [22]: 54%; inhibition of growth at 30 µM (MCF7 [23]): 36.9%; IC50 [24]: 50 µM; Activity [25]: 9%; Activity (HL-60 [26]): 26%; Activity [27]: 6%; inhibition of growth at 50 µM (HepG2 [28]): 29.3%; Activity [29]: 35%; inhibition of growth at 30 µM (SK-N-SH [30]): 34.2%; IC50 [31]: 3 µM; inhibition of growth at 30 µM (HepG2 [32]): 27.2%; Activity [33]: 10%; IC50 (SK-N-SH [34]): > 30 µM; inhibition of growth at 50 µM [35]: 42.8%; Activity [36]: 9%; Activity [37]: 5%; Activity [38]: 17%
